The values below come from ChEMBL document CHEMBL1255512, “Pyrazolo[1,5-a]pyrimidine acetamides: 4-Phenyl alkyl ether derivatives as potent ligands for the 18 kDa translocator protein (TSPO)” (Bioorg Med Chem Lett, 2010).

The test is described as follows: Displacement of [3H]Ro151788 from CBR in rat […]. The class given is tissue-based. For orientation: Displacement assays read how much labelled ligand stays bound in the presence of the test substance.

SMILES strings stand for the structures. pKi: −log10 of the molar value.

`CCC(C)N(C)C(=O)c1cc2ccccc2c(-c2ccccc2Cl)n1` (stereo not drawn) [PK-11195] had a pKi below 5.00.
The figure for `CCN(CC)C(=O)Cc1c(-c2ccc(OCCF)cc2)nn2c(C)cc(C)nc12` [DPA-714] is below 5.00; for `CCN(CC)C(=O)Cc1c(-c2ccc(OC)cc2)nn2c(C)cc(C)nc12` it is below 5.00.

Broadly, the pKi is the Ki on a negative log10 scale, so that one unit is a factor of ten. Low values mean a large Ki, high ones a small Ki.
